The numbers were not newly measured in patent US10851274B2, “Coolant mixtures for use in heat-exchange devices in the aerospace field” (Safran Electrical & Power, priority 2016, dated 2020), which cites them from elsewhere.

For data set [1] the following is noted: known fluids, water and antigels; criterion >500.
The conditions of data set [2]: known fluids, water and antigels; criterion <100.
The conditions of data set [3]: for Toxicity: known coolant fluids, water and antigels, criterion: No; for Toxicity (in words): known fluids.
The conditions of data set [4]: known fluids; for FP: water and antigels, criterion ≥23.

As to `CCOCC(C)O` (stereo not shown) [1-ethoxy-2-propanol], the ΔHvap in data set [1] is on record as 308 kJ/kg. In addition, the Tb in data set [2] was 132 °C. For the same molecule, in data set [3], the Toxicity entry is listed as “No (a fluid is non-toxic if its oral LD50 is greater than 500 mg/kg)”. For the same molecule, in data set [4], the FP is 42 °C.
For the molecule `COCC(C)O` (stereo not shown) [1-methoxy-2-propanol], the ΔHvap in data set [1] was 461 kJ/kg. Also, in data set [2], the Tb is 118 °C. Moreover, the Toxicity entry in data set [3] is given as “No (a fluid is non-toxic if its oral LD50 is greater than 500 mg/kg)”. Moreover, the FP in data set [4] was 34 °C.
For the molecule `CC(C)=O` [Acetone], the ΔHvap in data set [1] is 501 kJ/kg. For the same molecule, the Tb in data set [2] was 57 °C. Besides, the Toxicity entry in data set [3] is given as “No (a fluid is non-toxic if its oral LD50 is greater than 500 mg/kg)”. Further, in data set [4], the “Flammability (in words)” value is given as “highly flammable” and the FP is −20 °C.
Regarding `N` [Ammoniac, ammonia], the ΔHvap in data set [1] was 1371 kJ/kg. Also, the Tb in data set [2] was −33 °C. Moreover, in data set [3], the Toxicity result is on record as “Yes” and the “Toxicity (in words)” value is given as “toxic”. Moreover, the FP in data set [4] is 132 °C.
Regarding `O=C=O` [Carbon dioxide], the ΔHvap in data set [1] is given as 400 kJ/kg. The Tb in data set [2] is −57 °C. In data set [3], the Toxicity entry was “No (a fluid is non-toxic if its oral LD50 is greater than 500 mg/kg)”. The FP entry in data set [4] is listed as “None”.
Consider `CCO` [Ethanol], for which the ΔHvap in data set [1] is reported as 837 kJ/kg. Moreover, in data set [2], the Tb is 78 °C. In data set [3], the Toxicity result is given as “No (a fluid is non-toxic if its oral LD50 is greater than 500 mg/kg)”. In data set [4], the “Flammability (in words)” value is recorded as “highly flammable” and the FP is 13 °C.
Regarding `CCOC(F)(F)C(F)(F)C(F)(F)C(F)(F)F` [HFE 3M Novec 7100, ethoxynonafluorobutane], in data set [1], the ΔHvap was 126 kJ/kg. Also, the Tb in data set [2] was 76 °C. Moreover, in data set [3], the Toxicity result is “No (a fluid is non-toxic if its oral LD50 is greater than 500 mg/kg)”. Moreover, the FP entry in data set [4] was “None”.
`CO` [Methanol]: in data set [1], the ΔHvap is 1098 kJ/kg. Moreover, the Tb in data set [2] is 64 °C. Moreover, in data set [3], the Toxicity result is “Yes”. Further, in data set [4], the “Flammability (in words)” value is listed as “highly flammable” and the FP was 11 °C.
Take `CC(O)CO` (stereo not shown) [Propylene-glycol, propylene glycol]: the ΔHvap in data set [1] is on record as 736 kJ/kg. For the same molecule, in data set [2], the Tb was 187 °C. For the same molecule, in data set [3], the Toxicity entry is given as “No (a fluid is non-toxic if its oral LD50 is greater than 500 mg/kg)”. Moreover, the FP in data set [4] is 107 °C.
With `O` [Water], the Tb in data set [2] is 100 °C. For the same molecule, in data set [3], the Toxicity result was “No (a fluid is non-toxic if its oral LD50 is greater than 500 mg/kg)” and the “Toxicity (in words)” value is listed as “non-toxic”. In addition, in data set [4], the “Flammability (in words)” value is reported as “fireproof” and the FP entry is listed as “None”.
Consider `OCCO` [ethylene glycol], for which the “Toxicity (in words)” value in data set [3] is “highly toxic”.
